Results from patent US8871460B2, “Gamma-secretase modulatory compounds, methods for identifying same, and uses therefor” (Neurogenetic Pharmaceuticals, Inc., priority 2009, dated 2014).

Columns and labels:
[1] = tested on: ε-cleavage of endogenous E-cadherin; conditions: cited from earlier work
[2] = tested on: ε-cleavage of a gamma-secretase substrate, Notch; experiment: Epsilon cleavage assay: Notch (NICD) in HEK293 cells overexpressing APP751 and NΔE/S2; assay type: cell-based; conditions: 18 h
Experimental: The effect of Compound 2 treatment on ε-cleavage of a gamma-secretase substrate, Notch, was assessed using an HEK293 clonal cell line overexpressing APP751 and the Notch construct NΔE/S2. The NΔE/S2 construct lacks most of the extracellular domain of Notch (Schroeter et al. (1998) Nature 393:382-386), and when cleaved by γ-secretase results in production of the Notch intracellular domain (NICD). The cells were plated in replicate 24-well dishes and treated in triplicate with 30 μM of Compound 2, 1 μM of the gamma secretase inhibitor N—[N-(3,5-Difluorophenacetyl-L-alanyl)]S-phenylglycine t-butyl ester (DAPT), or vehicle (0.12% DMSO), for 18 h. Following compound treatment, conditioned medium was collected and analyzed for levels of secreted Aβ40, which confirmed compound activity. Cell lysates were prepared and separated on a 4-20% Tris-glycine gel and probed with an anti-NICD antibody (Cell Signaling, #2421) specific for the cleaved NICD, or anti-GAPDH, which served as a loading control for each lane. NICD bands were then quantified by densitometry and an average of replicate values was compared to the vehicle controls.

[3] = tested on: γ-secretase-dependent cleavage of E-cadherin; experiment: γ-secretase-dependent cleavage of E-cadherin in A431 cells, western blotting; assay type: cell-based, Human; conditions: overnight (16-18 h), then 6 h 1 μM staurosporine
Experimental: To measure γ-secretase-dependent cleavage of E-cadherin, an assay similar to that described by Marambaud et al. (2002) EMBO 21: 1948-1956 was developed. Human A431 cells which endogenously express detectable levels of E-cadherin and cleave full length E-cadherin upon treatment with staurosporine are treated overnight (16-18 h) with either test compound or control γ-secretase inhibitor (DAPT). Cleavage of E-cadherin is induced by a 6 h treatment with 1 μM staurosporine. Cell lysates are analyzed for levels of γ-CTF by western blotting and protein bands are quantified by densitometry.

GST-Pen2 = GST-Pen2 (Homo sapiens, UniProt Q9NZ42); experiment: Surface plasmon resonance (SPR) assay, Biacore 2000; conditions: equilibrium responses fit to 1:1 binding isotherm; estimated
Sequence of GST-Pen2 (Q9NZ42 whole entry): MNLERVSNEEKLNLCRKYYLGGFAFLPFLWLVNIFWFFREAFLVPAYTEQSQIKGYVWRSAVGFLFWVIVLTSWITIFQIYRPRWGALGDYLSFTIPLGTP
Experimental: A surface plasmon resonance (SPR) assay was performed using the Biacore™ 2000 system and control software (Biacore Life Sciences), essentially as described in Warnmark et al. (2001) J. Biol. Chem. 276:23397-23404. Compound 2 or L-685,458 (Sigma #L1790) were diluted 30 fold from a 25 mM stock in 100% DMSO, then each further diluted into running buffer containing 10 mM HEPES, 150 mM NaCl, 1% Triton X-100, pH 7.4. The compounds were run in a 3-fold dilution series over a GST-Pen2 or a free GST flow cell surface. The binding responses at equilibrium for each compound were fit to a 1:1 binding isotherm in order to estimate the binding affinities.

gamma-secretase [4] = experiment: Mass spectrometry (SELDI) analysis of secreted Aβ from CHO-APPSwe cells; assay type: cell-based, Chinese Hamster; conditions: 1 μM, 18 h
Experimental: CHO-APPSwe cells were plated at 1 million cells per well in 6-well dishes and treated with complete DMEM medium containing either vehicle alone (DMSO), 1 μM Compound 2, or 1 μM GSI 1. Cells were incubated for 18 h, medium collected, and levels of secreted Aβ determined by mass spectrometry. Briefly, collected medium was immunoprecipitated overnight using antibody B436 coupled directly to Sepharose. Fifty ng of Aβ1-28 peptide was spiked into the medium as an internal standard. The Sepharose beads were then washed with TBS and bound Aβ was eluted with acetonitrile/0.1% trifluoroacetic acid. Eluate (3-6 μl) was spotted on NP20 chips (Ciphergen). Once the samples were dry, 20% CHCA matrix was spotted (1 μl) and allowed to dry. Chips were read on a SELDI Ciphergen mass spectrometer and Aβ peptides were identified by expected mass and comparison to standard purchased Aβ peptides (Bachem).

gamma-secretase [5] = experiment: Sandwich ELISA of secreted Aβ from CHO-APPSwe cells; assay type: cell-based, Chinese Hamster; conditions: 18 h
Experimental: For ELISA analysis, CHO-APPSwe cells were seeded at a density of 100K/well in 96-well plates and allowed to adhere overnight. Medium was removed and replaced with complete DMEM medium containing either vehicle alone (DMSO) or a dose-response of Compound 2 or GSI 1 (the gamma-secretase inhibitor designated Inhibitor 1 in Tian et al. (2002) J. Biol. Chem. 277:31499-31505). Cells were incubated with compounds for 18 h, medium collected, and levels of secreted Aβ determined as described below. Cytotoxicity was determined on each well to be less than 30% using an Alamar Blue assay (see US Published Application 2005/0070538).
Secreted Aβ38 peptide was quantified using an ultra-sensitive sandwich ELISA assay kit (Meso Scale Detection catalog #K111FSE-2) and the Meso Scale Sector Imager 6000 for detection, according to the manufacturer's recommended protocol. Captured Aβ was quantified by comparing ECL signals of the samples to a standard curve (included on each plate) using synthetic Aβ prepared in complete DMEM medium. Aβ standard peptides were purchased from Bachem and stored at 0.5 mg/ml in hexafluoroisopropanol (HFIP) at −20° C.
Secreted Aβ40, Aβ42, and total Aβ were measured using specific sandwich ELISAs. Aβ peptides were captured using either an Aβ40-selective monoclonal antibody (B113), an Aβ42-selective monoclonal antibody (A387), or a total Aβ (1-x) capture monoclonal antibody raised to the amino-terminal region (B436) (see PCT publication WO 04/018997).
Briefly, 96-well white ELISA plates were coated with the appropriate capture antibody, wells were blocked with 1% BSA/TBS, and then samples were assayed in complete medium at an appropriate dilution so that the relative luminescent units (RLUs) were in the linear range of the standard curve. Following sample incubation for all ELISAs, plates were washed and exposed to an alkaline phosphatase (AP) conjugated secondary antibody. For Aβ40 and Aβ42, B436-AP was used as the second antibody in the sandwich ELISA. For the total Aβ ELISA, 4G8-biotin (Signet) (a monoclonal antibody that recognizes the Aβ17-24) was used in combination with strepavidin-AP as the detection complex. Thus, for this experiment, total Aβ includes Aβ peptides from 1-x, where x>24. Bound AP-conjugates were detected with CSPD-Sapphire II Luminescence Substrate (Applied Biosystems) and plates were read using a standard 96-well luminometer.
Captured Aβ was quantified by comparing RLU values of the samples to a standard curve (included on each plate) using synthetic Aβ prepared in complete media. Aβ standard peptides were purchased from Bachem and stored at 0.5 mg/ml in hexafluoroisopropanol (HFIP) at −20° C.

gamma-secretase [6] = experiment: Immunoprecipitation and immunoblot analysis of Aβ in CHO-APPSwe conditioned medium; assay type: cell-based, Chinese Hamster; conditions: 18 h, Compound 2 0.3-1000 nM, GSI 1 3-1000 nM
Experimental: For this analysis, CHO-APPSwe cells were treated with concentrations of Compound 2 ranging from 0.3 nM to 1000 nM, or with concentrations of a gamma-secretase inhibitor, GSI 1 (Tian et al. (2002) J. Biol. Chem. 277 (35), 31499-31505) ranging from 3 nM to 1000 nM, or with vehicle (0.12% DMSO), for 18 hours. The conditioned medium was collected and immunoprecipitated with the anti-Aβ1-12 antibody B436. Samples were denatured and electrophoresed on gels prepared according to Wiltfang et al. (1997) Electrophoresis 18:527-532, with the following improvements: the separating gel contained 12.5% instead of 15% acrylamide, the comb gel layer was omitted, and glycerol (25%) and DTT (100 mM) were substituted for sucrose and β-mercaptoethanol in the 2× sample buffer. Chemically synthesized Aβ1-37, Aβ1-38, Aβ1-40 and Aβ1-42 peptides (Bachem) were run as size standards. After electrophoresis, the peptides were transferred to nitrocellulose filters and immunoblotted with a biotinylated B436 antibody to detect the various Aβ alloforms.

[7] = to a lesser extent than Aβ37 and Aβ38

In the case of `C[C@H](NC(=O)Cc1cc(F)cc(F)c1)C(=O)N[C@H](C(=O)OC(C)(C)C)c1ccccc1` [DAPT, N—[N-(3,5-Difluorophenacetyl-L-alanyl)]S-phenylglycine t-butyl ester, reference compound], the “effect on E-cadherin CTF1 or CTF3” value [1] is given as “no effect”, the “formation of E-cadherin CTF2” value [1] is given as “inhibit” and the “inhibition of NICD formation” value ([2]; 1 μM) is given as over 95%. The “inhibition of E-cadherin cleavage/processing (γ-CTF)” value [3] was “completely inhibits”.
In the case of `C[C@H](NC(=O)Cc1cc(F)cc(F)c1)C(=O)N[C@H]1N=C(c2ccccc2)c2ccccc2N(C)C1=O` [Compound E], the “effect on E-cadherin CTF1 or CTF3” value [1] is listed as “no effect” and the “formation of E-cadherin CTF2” value [1] is listed as “inhibit”.
In the case of `CC(C)C[C@H](NC(=O)[C@H](Cc1ccccc1)C[C@@H](O)[C@H](Cc1ccccc1)NC(=O)OC(C)(C)C)C(=O)N[C@@H](Cc1ccccc1)C(N)=O` [L-685,458], the “effect on E-cadherin CTF1 or CTF3” value [1] is given as “no effect”, the “formation of E-cadherin CTF2” value [1] is given as “inhibit” and the Kd (GST-Pen2) is given as 1900 µM.
In the case of `COc1cc(C)c(Nc2nc(-c3ccc(-n4cnc(C)c4)c(F)c3)cs2)cc1C(C)C` [Compound 2], the “Aβ37 compared to vehicle treated cells” value (gamma-secretase [4]) is reported as “increased”, the “Aβ38 compared to vehicle treated cells” value (gamma-secretase [4]) is reported as “increased” and the “Aβ33 compared to vehicle treated cells” value (gamma-secretase [4]; [7]) is reported as “increased”. The “Aβ34 compared to vehicle treated cells” value (gamma-secretase [4]; [7]) was “increased”, the “inhibition of Notch processing” value ([2]; up to 30 μM) was “no detectable inhibition” and the “inhibition of E-cadherin cleavage/processing (γ-CTF)” value [3] was “no detectable inhibition”. For the same molecule, the “secreted Aβ40 level” value (gamma-secretase [5]; ELISA) was “concentration dependent decrease”, the “secreted Aβ42 level” value (gamma-secretase [5]; ELISA) was “concentration dependent decrease” and the “total Aβ level” value (gamma-secretase [5]; ELISA, Aβ 1-x, x>24) was “did not significantly change”. For the same molecule, the “secreted Aβ38 level” value (gamma-secretase [5]; ultra-sensitive sandwich ELISA) was “markedly increased”, the Kd (GST-Pen2) was 6.5 µM and the “level of Aβ1-37 in conditioned medium” value (gamma-secretase [6]) was “increase”. For the same molecule, the “level of Aβ1-38 in conditioned medium” value (gamma-secretase [6]) was “increase” and the “level of Aβ1-40 in conditioned medium” value (gamma-secretase [6]) was “lower”.
